Laboratory results reported in US8076352B2, “Administration of carboline derivatives useful in the treatment of cancer and other diseases” (PTC Therapeutics, Inc., priority 2004, dated 2011).

Tested on: hypoxia-inducible endogenous VEGF expression in HeLa cells
Test: Hypoxia-inducible endogenous VEGF expression, VEGF ELISA of conditioned media (dose-response EC50)
Format: cell-based
Conditions: Homo sapiens
How it was run: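 Secreted VEGF was quantified by ELISA against a per-assay standard curve after HeLa cells spent 24-48 h in 1% O2, 5% CO2, N2 balance with or without compound. Across a series of, e.g., seven concentrations, percentage inhibition (max 100%, min 0%) gave EC50 and CC50 values.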

[1] = HeLa cells, hypoxic conditions (1% O2)
[2] = HeLa cells under hypoxic conditions
[3] = HeLa cells, hypoxic conditions (1% O2, 5% CO2)

Row | Compound | EC50 [2] | other results
1 | CCOC(=O)N1CCc2c([nH]c3ccc(Cl)cc23)C1c1ccc(OCCCN(C)C)cc1 (stereo not drawn) [Compound 458] |  | EC50 [1]: 8 to 40 nM
2 | COc1ccc(C2NCCc3c2[nH]c2ccc(Br)cc32)cc1 (stereo not drawn) [Compound 214] | 200 to 1000 nM | 
3 | Clc1ccc(C2NCCc3c2[nH]c2ccc(Br)cc32)c(Cl)c1 (stereo not drawn) [Compound 135] | 40 to 200 nM | 
4 | CCOC(=O)N1CCc2c([nH]c3ccc(Cl)cc23)C1C(C)CC (stereo not drawn) [Compound 547] |  | EC50 [1]: 200 to 1000 nM
5 | CCOC(=O)N1CCc2c([nH]c3ccc(Cl)cc23)C1c1ccc(C(=O)N2CCCN(C)CC2)cc1 (stereo not drawn) [Compound 514] |  | EC50 [1]: 40 to 200 nM
6 | O=C(Oc1ccc(Cl)cc1)N1CCc2c([nH]c3ccc(Cl)cc23)C1c1ccc(OCCCn2ccnc2)cc1 (stereo not drawn) [Compound 917] |  | EC50 [3]: < 8 nM
7 | COc1ccc(C2c3[nH]c4ccc(Cl)cc4c3CCN2C(=O)N(C)c2ccccc2)cc1 (stereo not drawn) [Compound 340] | > 1000 nM | 
8 | CCOC(=O)N1CCc2c([nH]c3ccc(Cl)cc23)C1c1ccc(C(=O)NCC2COC(C)(C)O2)cc1 (stereo not drawn) [Compound 461] |  | EC50 [1]: 8 to 40 nM
9 | CCOC(=O)N1CCc2c([nH]c3ccc(Br)cc23)C1c1ccc(Br)cc1 (stereo not drawn) [Compound 3] | < 8 nM | 
10 | O=C(Oc1ccc(Cl)cc1)N1CCc2c([nH]c3ccc(Cl)cc23)C1c1ccc(OCCNc2nccs2)cc1 (stereo not drawn) [#841] |  | EC50 [3]: < 8 nM
11 | COc1ccc(C2c3[nH]c4ccc(Cl)cc4c3CCN2C(=O)Cc2ccc(Cl)cc2)cc1 (stereo not drawn) [Compound 447] |  | EC50 [1]: 8 to 40 nM
12 | CCOC(=O)N1CCc2c([nH]c3ccccc23)C1c1ccc(OC)cc1 (stereo not drawn) [Compound 235] | > 1000 nM | 
13 | COc1ccc(C2c3[nH]c4ccccc4c3CCN2C(=O)Nc2ccccc2)cc1 (stereo not drawn) [Compound 302] | > 1000 nM | 
14 | O=C(Oc1ccc(F)cc1)N1CCc2c([nH]c3ccc(Cl)cc23)C1c1ccc(OCCCCN2CCOCC2)cc1 (stereo not drawn) [Compound 738] |  | EC50 [1]: < 8 nM
15 | O=C(Oc1ccc(F)cc1)N1CCc2c([nH]c3ccc(Cl)cc23)C1c1ccc(OCC(O)Cn2ccnn2)cc1 (stereo not drawn) [Compound 941] |  | EC50 [3]: < 8 nM
16 | CCOC(=O)N1CCc2c([nH]c3ccc(Cl)cc23)C1c1cnc(N(C)C)nc1 (stereo not drawn) [Compound 476] |  | EC50 [1]: 40 to 200 nM
17 | CN(C)c1ncc(C2c3[nH]c4ccc(Br)cc4c3CCN2c2ncccn2)cn1 (stereo not drawn) [Compound 394] | < 8 nM | 
18 | CCOC(=O)Oc1ccc(C2c3[nH]c4ccc(Cl)cc4c3CCN2C(=O)OCC)cc1 (stereo not drawn) [Compound 136] | 40 to 200 nM | 
19 | COc1ccc(OC(=O)N2CCc3c([nH]c4ccc(Cl)cc34)C2c2cnc(N(C)C)nc2)cc1 (stereo not drawn) [Compound 445] |  | EC50 [1]: 8 to 40 nM

Row | Compound | EC50 [2] | other results
20 | CC(C)NCCCCCCOc1ccc(C2c3[nH]c4ccc(Cl)cc4c3CCN2C(=O)Oc2ccc(Cl)cc2)cc1 (stereo not drawn) [Compound 784] |  | EC50 [1]: < 8 nM
21 | CCOC(=O)N1CCc2c([nH]c3ccc(Cl)cc23)C1c1ccc(C(=O)N2CCC(N3CCCCC3)CC2)cc1 (stereo not drawn) [Compound 531] |  | EC50 [1]: 200 to 1000 nM
22 | COc1ccc(C2c3[nH]c4ccc(Cl)cc4c3CCN2C(=O)C(C)OC(C)=O)cc1 (stereo not drawn) [Compound 370] | < 8 nM | 
23 | FC(F)(F)c1cccc(C2NCCc3c2[nH]c2ccc(Br)cc32)c1 (stereo not drawn) [Compound 207] | 200 to 1000 nM | 
24 | Cc1ccc(C2c3[nH]c4ccc(Cl)cc4c3CCN2C(=O)Oc2ccc(Cl)cc2)cc1 (stereo not drawn) [Compound 347] | < 8 nM | 
25 | CCOC(=O)N1CCc2c([nH]c3ccc(Cl)cc23)C1c1ccc(C(=O)N2CCN(C)CC2)cc1 (stereo not drawn) [Compound 498] |  | EC50 [1]: 40 to 200 nM
26 | COc1ccc(C2c3[nH]c4ccc(Cl)cc4c3CCN2C(=O)c2ccc(-c3ccccc3)cc2)cc1 (stereo not drawn) [Compound 464] |  | EC50 [1]: 8 to 40 nM
27 | COCCOc1ccc(C2c3[nH]c4ccc(Cl)cc4c3CCN2C(=O)OCCF)cc1 (stereo not drawn) [Compound 423] |  | EC50 [1]: < 8 nM
28 | COc1ccc2[nH]c3c(c2c1)CCNC3c1cccnc1 (stereo not drawn) [Compound 324] | > 1000 nM | 
29 | CCOC(=O)N1CCc2c([nH]c3ccc(Br)cc23)C1c1ccc(C(=O)N2CCN(CCO)CC2)cc1 (stereo not drawn) [Compound 466] |  | EC50 [1]: 8 to 40 nM
30 | COc1ccc(C2c3[nH]c4ccc(Cl)cc4c3CCN2C(=O)Nc2cccc(F)c2)cc1 (stereo not drawn) [Compound 160] | 40 to 200 nM | 
31 | Fc1cccc(C2NCCc3c2[nH]c2ccc(Br)cc32)c1F (stereo not drawn) [Compound 132] | 40 to 200 nM | 
32 | Fc1cc(F)cc(C2NCCc3c2[nH]c2ccc(Cl)cc32)c1 (stereo not drawn) [Compound 173] | 200 to 1000 nM | 
33 | COc1ccc2[nH]c3c(c2c1)CCNC3c1ccccc1 (stereo not drawn) [Compound 322] | > 1000 nM | 
34 | O=C(Oc1ccc(F)cc1)N1CCc2c([nH]c3ccc(Cl)cc23)C1c1ccc(OCC(O)CO)cc1 (stereo not drawn) [Compound 627] |  | EC50 [1]: < 8 nM
35 | Clc1ccc2[nH]c3c(c2c1)CCNC3c1ccc(OCc2ccccc2)cc1 (stereo not drawn) [Compound 212] | 200 to 1000 nM | 
36 | CCC(Br)C(=O)N1CCc2c([nH]c3ccc(Cl)cc23)C1c1ccc(OC)cc1 (stereo not drawn) [Compound 559] |  | EC50 [1]: 200 to 1000 nM
37 | COc1ccc(C2c3[nH]c4ccc(OC)cc4c3CCN2C(=O)Oc2ccc(Cl)cc2)cc1 (stereo not drawn) [Compound 614] |  | EC50 [1]: 200 to 1000 nM
38 | O=C(Oc1ccc(Cl)cc1)N1CCc2c([nH]c3ccc(Cl)cc23)C1c1ccc(O)cc1 (stereo not drawn) [Compound 577] |  | EC50 [1]: 40 to 200 nM

Row | Compound | EC50 [2] | other results
39 | CC(C)C(=O)Nc1ccc(C2c3[nH]c4ccc(Cl)cc4c3CCN2C(=O)Oc2ccc(Cl)cc2)cc1 (stereo not drawn) [Compound 482] |  | EC50 [1]: 40 to 200 nM
40 | CCOC(=O)N1CCc2c([nH]c3ccc(F)cc23)C1c1ccc(C)cc1 (stereo not drawn) [Compound 209] | 200 to 1000 nM | 
41 | O=C(Oc1ccc(F)cc1)N1CCc2c([nH]c3ccc(Cl)cc23)C1c1ccc(OCCCn2ccnn2)cc1 (stereo not drawn) [Compound 995] |  | EC50 [3]: < 8 nM
42 | CN1CCN(CCCOc2ccc(C3c4[nH]c5ccc(Cl)cc5c4CCN3C(=O)Oc3ccc(Cl)cc3)cc2)CC1 (stereo not drawn) [Compound 961] |  | EC50 [3]: 8 to 40 nM
43 | CCOC(=O)N1CCc2c([nH]c3ccc(Br)cc23)C1c1ccc(F)c(F)c1 (stereo not drawn) [Compound 78] | 8 to 40 nM | 
44 | COCC(=O)N1CCc2c([nH]c3ccc(Br)cc23)C1c1ccccc1 (stereo not drawn) [Compound 230] | > 1000 nM | 
45 | COCCOCC(=O)N1CCc2c([nH]c3ccc(Br)cc23)C1c1ccc(Br)cc1 (stereo not drawn) [Compound 241] | > 1000 nM | 
46 | CCOC(=O)N1CCc2c([nH]c3ccc(Br)cc23)C1c1ccc(C(=O)N2CCN(CC)CC2)cc1 (stereo not drawn) [Compound 425] |  | EC50 [1]: < 8 nM
47 | Fc1ccc2[nH]c3c(c2c1)CCNC3c1ccc(Cl)cc1Cl (stereo not drawn) [Compound 257] | > 1000 nM | 
48 | Cc1ccc(OC(=O)N2CCc3c([nH]c4ccc(Cl)cc34)C2c2ccc(OCCCCl)cc2)cc1 (stereo not drawn) [Compound 915] |  | EC50 [3]: < 8 nM
49 | O=C(Oc1ccc(F)cc1)N1CCc2c([nH]c3ccc(Cl)cc23)C1c1ccc(OCCCn2ccnc2)cc1 (stereo not drawn) [Compound 889] |  | EC50 [3]: < 8 nM
50 | O=C(Oc1ccccc1)N1CCc2c([nH]c3ccc(Cl)cc23)C1c1ccc(OCCCn2cncn2)cc1 (stereo not drawn) [Compound 891] |  | EC50 [3]: < 8 nM
51 | CCOC(=O)N1Cc2c([nH]c3ccc(Br)cc23)C(O)C1 (stereo not drawn) [Compound 249] | > 1000 nM | 
52 | COCCN(C)CCCOc1ccc(C2c3[nH]c4ccc(Cl)cc4c3CCN2C(=O)Oc2ccc(Cl)cc2)cc1 (stereo not drawn) [Compound 908] |  | EC50 [3]: < 8 nM
53 | C=CCOc1ccc(C2c3[nH]c4ccc(Cl)cc4c3CCN2C(=O)OCCF)cc1 (stereo not drawn) [Compound 399] |  | EC50 [1]: < 8 nM
54 | COc1ccc(OC(=O)N2CCc3c([nH]c4ccc(Cl)cc34)C2c2ccc(OCCCn3cncn3)cc2)cc1 (stereo not drawn) [Compound 888] |  | EC50 [3]: < 8 nM
55 | CCOC(=O)N1CCc2c([nH]c3ccc(Cl)cc23)C1c1cccc(CN2CCN(CCOC)CC2)c1 (stereo not drawn) [Compound 567] |  | EC50 [1]: > 1000 nM
56 | O=C(Oc1ccc(Cl)cc1)N1CCc2c([nH]c3ccc(Cl)cc23)C1c1ccc(OCCCCN2CCCCC2)cc1 (stereo not drawn) [Compound 703] |  | EC50 [1]: 8 to 40 nM

Second part, led by results:

Row | EC50 [2] | Compound | other results
57 | 8 to 40 nM | CCCOC(=O)N1CCc2c([nH]c3ccc(Cl)cc23)C1c1ccc(Cl)cc1 (stereo not drawn) [Compound 49] | 
58 | 8 to 40 nM | CC(C)OC(=O)N1CCc2c([nH]c3ccc(Cl)cc23)C1c1ccc([N+](=O)[O-])cc1 (stereo not drawn) [Compound 56] | 
59 | 8 to 40 nM | CCCOC(=O)N1CCc2c([nH]c3ccc(Cl)cc23)C1c1cccc(F)c1 (stereo not drawn) [Compound 75] | 
60 | 8 to 40 nM | CCOC(=O)N1CCc2c([nH]c3ccc(Cl)cc23)C1c1ccc(C#N)cc1 (stereo not drawn) [Compound 120] | 
61 | 8 to 40 nM | CC(=O)N1CCc2c([nH]c3ccc(Br)cc23)C1c1cccc(Cl)c1 (stereo not drawn) [Compound 98] | 
62 | 200 to 1000 nM | COc1ccc(C2c3[nH]c4ccc(Cl)cc4c3CCN2C(=O)Cc2ccccc2)cc1 (stereo not drawn) [Compound 368] | 
63 | > 1000 nM | CCN(CC)C(=O)N1CCc2c([nH]c3ccc(Cl)cc23)C1c1ccc(OC)cc1 (stereo not drawn) [Compound 339] | 
64 | 40 to 200 nM | COC(=O)N1CCc2c([nH]c3ccc(Cl)cc23)C1c1ccc(F)c(F)c1 (stereo not drawn) [Compound 134] | 
65 | 8 to 40 nM | O=C(OCCCl)N1CCc2c([nH]c3ccc(Cl)cc23)C1c1ccccc1F (stereo not drawn) [Compound 103] | 
66 | 8 to 40 nM | CC(C)OC(=O)N1CCc2c([nH]c3ccc(Cl)cc23)C1c1cccc(Cl)c1 (stereo not drawn) [Compound 87] | 
67 | < 8 nM | CCCOC(=O)N1CCc2c([nH]c3ccc(Cl)cc23)C1c1ccc(OC)cc1 (stereo not drawn) [Compound 28] | 
68 | > 1000 nM | COc1ccc(C2c3[nH]c4ccc(Cl)cc4c3CCN2S(=O)(=O)c2ccccc2Cl)cc1 (stereo not drawn) [Compound 372] | 
69 | 8 to 40 nM | O=C(OCCCl)N1CCc2c([nH]c3ccc(Cl)cc23)C1c1ccc(Br)cc1 (stereo not drawn) [Compound 58] | 
70 | < 8 nM | CCOC(=O)N1CCc2c([nH]c3ccc(Cl)cc23)C1c1ccc(OC)cc1 (stereo not drawn) [Compound 2] | 
71 | 40 to 200 nM | CCCCCNC(=S)N1CCc2c([nH]c3ccc(Cl)cc23)C1c1ccc(C(C)C)cc1 (stereo not drawn) [Compound 337] | 
72 | > 1000 nM | Clc1ccc2[nH]c3c(c2c1)CCN(Cc1ccco1)C3c1nccs1 (stereo not drawn) [Compound 267] | 
73 | 200 to 1000 nM | Clc1ccc2[nH]c3c(c2c1)CCNC3c1cccc(Br)c1 (stereo not drawn) [Compound 200] | 
74 | < 8 nM | CC(C)OC(=O)N1CCc2c([nH]c3ccc(Cl)cc23)C1c1ccc(C(F)(F)F)cc1 (stereo not drawn) [Compound 26] | 
75 | > 1000 nM | FC(F)(F)c1cccc(C2NCCc3c2[nH]c2ccc(Cl)cc32)c1 (stereo not drawn) [Compound 299] | 
76 | 8 to 40 nM | COC(=O)N1CCc2c([nH]c3ccc(Cl)cc23)C1c1ccc(C(F)(F)F)cc1 (stereo not drawn) [Compound 62] | 
77 | 8 to 40 nM | CCCOC(=O)N1CCc2c([nH]c3ccc(Cl)cc23)C1c1cccc(Br)c1 (stereo not drawn) [Compound 69] | 
78 | 200 to 1000 nM | CCNC(=O)N1CCc2c([nH]c3ccc(Cl)cc23)C1c1ccc(OC)cc1 (stereo not drawn) [Compound 172] | 
